# Test results taken from PubChem BioAssay AID2060506 (Molecular Pharmacology Branch, DTP, NCI, 2025).
# Tested on: 598228-144-R-J1-PDC complex spheroid viability
# Assay: Anticancer human tumor 598228-144-R-J1-PDC patient-derived serous endometrial adenocarcinoma cell line growth inhibition [GQUAD]
# Settings: for IC50: curve of first compound; for viability, T/C: stronger effect = lower value
# Procedure, shortened: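 Tumor cells were grown as complex spheroids with HUVEC endothelial cells and mesenchymal stem cells as stroma. G-quadruplex stabilizers were combined with targeted agents over half-log dilutions from near the clinical Cmax, or from 10 microM.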
# [1] = second compound 0.0316 µM, first compound 0.0316 µM
# [2] = second compound 0.0316 µM, first compound 0.1 µM
# [3] = second compound 0.0316 µM, first compound 0.316 µM
# [4] = second compound 0.0316 µM, first compound 1 µM
# [5] = second compound 0.0316 µM, first compound 3.16 µM
# [6] = second compound 0.0316 µM, first compound 10 µM
# [7] = second compound 0.1 µM, first compound 0.0316 µM
# [8] = second compound 0.1 µM, first compound 0.1 µM
# [9] = second compound 0.1 µM, first compound 0.316 µM
# [10] = second compound 0.1 µM, first compound 1 µM
# [11] = second compound 0.1 µM, first compound 3.16 µM
# [12] = second compound 0.1 µM, first compound 10 µM
# [13] = second compound 0.316 µM, first compound 0.0316 µM
# [14] = second compound 0.316 µM, first compound 0.1 µM
# [15] = second compound 0.316 µM, first compound 0.316 µM
# [16] = second compound 0.316 µM, first compound 1 µM
# [17] = second compound 0.316 µM, first compound 3.16 µM
# [18] = second compound 0.316 µM, first compound 10 µM
# [19] = second compound 1 µM, first compound 0.0316 µM
# [20] = second compound 1 µM, first compound 0.1 µM
# [21] = second compound 1 µM, first compound 0.316 µM
# [22] = second compound 1 µM, first compound 1 µM
# [23] = second compound 1 µM, first compound 3.16 µM
# [24] = second compound 1 µM, first compound 10 µM
# [25] = second compound 3.16 µM, first compound 0.0316 µM
# [26] = second compound 3.16 µM, first compound 0.1 µM
# [27] = second compound 3.16 µM, first compound 0.316 µM
# [28] = second compound 3.16 µM, first compound 1 µM
# [29] = second compound 3.16 µM, first compound 3.16 µM
# [30] = second compound 3.16 µM, first compound 10 µM
# [31] = second compound 10 µM, first compound 0.0316 µM
# [32] = second compound 10 µM, first compound 0.1 µM
# [33] = second compound 10 µM, first compound 0.316 µM
# [34] = second compound 10 µM, first compound 1 µM
# [35] = second compound 10 µM, first compound 3.16 µM
# [36] = second compound 10 µM, first compound 10 µM
# 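Also: spheroids exposed to the agents for one week before reading.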
# 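For viability, T/C in this document: percent of vehicle DMSO control viability so 100% = untreated growth.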
smiles,measurement,setting,value
C=CCn1c(=O)c2cnc(Nc3ccc(N4CCN(C)CC4)cc3)nc2n1-c1cccc(C(C)(C)O)n1 + Cc1[nH]c2ccc(F)cc2c1-c1nc2c3cccnc3c3ncccc3c2[nH]1,IC50,second compound 0.0316 µM,999 nM
same,IC50,second compound 0.1 µM,> 10000 nM
same,IC50,second compound 0.316 µM,> 10000 nM
same,IC50,second compound 1 µM,> 10000 nM
same,IC50,second compound 3.16 µM,< 31.6 nM
same,IC50,second compound 10 µM,> 10000 nM
same,"viability, T/C",[1],110%
same,"viability, T/C",[2],102%
same,"viability, T/C",[3],83.2%
same,"viability, T/C",[4],48.3%
same,"viability, T/C",[5],47.1%
same,"viability, T/C",[6],52.8%
same,"viability, T/C",[7],125%
same,"viability, T/C",[8],84.6%
same,"viability, T/C",[9],62.5%
same,"viability, T/C",[10],53.4%
same,"viability, T/C",[11],52.8%
same,"viability, T/C",[12],55.9%
same,"viability, T/C",[13],77.7%
same,"viability, T/C",[14],75.4%
same,"viability, T/C",[15],66.1%
same,"viability, T/C",[16],48.9%
same,"viability, T/C",[17],55.6%
same,"viability, T/C",[18],62.4%
same,"viability, T/C",[19],52%
same,"viability, T/C",[20],59.8%
same,"viability, T/C",[21],46.7%
same,"viability, T/C",[22],48.7%
same,"viability, T/C",[23],55%
same,"viability, T/C",[24],74.5%
same,"viability, T/C",[25],40.1%
same,"viability, T/C",[26],35.1%
same,"viability, T/C",[27],39.9%
same,"viability, T/C",[28],44.6%
same,"viability, T/C",[29],59%
same,"viability, T/C",[30],62.3%
same,"viability, T/C",[31],73.6%
same,"viability, T/C",[32],54.6%
same,"viability, T/C",[33],50.4%
same,"viability, T/C",[34],42.4%
same,"viability, T/C",[35],52.2%
same,"viability, T/C",[36],57.7%
CC(C)(O)C1CCC(Nc2ccc3ncc(-c4cccc(C(F)(F)F)c4)n3n2)CC1 (stereo not drawn) + Cc1[nH]c2ccc(F)cc2c1-c1nc2c3cccnc3c3ncccc3c2[nH]1,IC50,second compound 0.0316 µM,2400 nM
same,IC50,second compound 0.1 µM,2370 nM
same,IC50,second compound 0.316 µM,2240 nM
same,IC50,second compound 1 µM,1290 nM
same,IC50,second compound 3.16 µM,< 31.6 nM
same,IC50,second compound 10 µM,1330 nM
same,"viability, T/C",[1],106%
same,"viability, T/C",[2],112%
same,"viability, T/C",[3],109%
same,"viability, T/C",[4],86.5%
same,"viability, T/C",[5],38.8%
same,"viability, T/C",[6],30.7%
same,"viability, T/C",[7],133%
same,"viability, T/C",[8],121%
same,"viability, T/C",[9],103%
same,"viability, T/C",[10],95.3%
same,"viability, T/C",[11],32.2%
same,"viability, T/C",[12],30.1%
same,"viability, T/C",[13],77.5%
same,"viability, T/C",[14],85.5%
same,"viability, T/C",[15],81.3%
same,"viability, T/C",[16],93.8%
same,"viability, T/C",[17],35.2%
same,"viability, T/C",[18],26.3%
same,"viability, T/C",[19],58.7%
same,"viability, T/C",[20],67%
same,"viability, T/C",[21],57.5%
same,"viability, T/C",[22],55.8%
same,"viability, T/C",[23],30.6%
same,"viability, T/C",[24],24%
same,"viability, T/C",[25],30.7%
same,"viability, T/C",[26],40.9%
same,"viability, T/C",[27],38.8%
same,"viability, T/C",[28],39.7%
same,"viability, T/C",[29],23.1%
same,"viability, T/C",[30],27.7%
same,"viability, T/C",[31],76.4%
same,"viability, T/C",[32],52.6%
same,"viability, T/C",[33],63.2%
same,"viability, T/C",[34],57.2%
same,"viability, T/C",[35],25.9%
same,"viability, T/C",[36],30.7%
Cc1[nH]c2ccccc2c1CCNCc1ccc(/C=C/C(=O)NO)cc1 + Cc1[nH]c2ccc(F)cc2c1-c1nc2c3cccnc3c3ncccc3c2[nH]1,IC50,second compound 0.0316 µM,62.9 nM
same,IC50,second compound 0.1 µM,63 nM
same,IC50,second compound 0.316 µM,58 nM
same,IC50,second compound 1 µM,23.9 nM
same,IC50,second compound 3.16 µM,< 0.999 nM
same,IC50,second compound 10 µM,39.1 nM
same,"viability, T/C","second compound 0.0316 µM, first compound 0.000999 µM",110%
same,"viability, T/C","second compound 0.0316 µM, first compound 0.00316 µM",115%
same,"viability, T/C","second compound 0.0316 µM, first compound 0.00999 µM",131%
same,"viability, T/C",[1],82.5%
same,"viability, T/C","second compound 0.0316 µM, first compound 0.0999 µM",28%
same,"viability, T/C",[3],0.83%
same,"viability, T/C","second compound 0.1 µM, first compound 0.000999 µM",111%
same,"viability, T/C","second compound 0.1 µM, first compound 0.00316 µM",108%
same,"viability, T/C","second compound 0.1 µM, first compound 0.00999 µM",103%
same,"viability, T/C",[7],77.8%
same,"viability, T/C","second compound 0.1 µM, first compound 0.0999 µM",31.4%
same,"viability, T/C",[9],1.46%
same,"viability, T/C","second compound 0.316 µM, first compound 0.000999 µM",107%
same,"viability, T/C","second compound 0.316 µM, first compound 0.00316 µM",108%
same,"viability, T/C","second compound 0.316 µM, first compound 0.00999 µM",90.2%
same,"viability, T/C",[13],73.5%
same,"viability, T/C","second compound 0.316 µM, first compound 0.0999 µM",30.1%
same,"viability, T/C",[15],0.7%
same,"viability, T/C","second compound 1 µM, first compound 0.000999 µM",71.8%
same,"viability, T/C","second compound 1 µM, first compound 0.00316 µM",58%
same,"viability, T/C","second compound 1 µM, first compound 0.00999 µM",62.6%
same,"viability, T/C",[19],47.1%
same,"viability, T/C","second compound 1 µM, first compound 0.0999 µM",22.4%
same,"viability, T/C",[21],0.79%
same,"viability, T/C","second compound 3.16 µM, first compound 0.000999 µM",32.2%
same,"viability, T/C","second compound 3.16 µM, first compound 0.00316 µM",32.8%
same,"viability, T/C","second compound 3.16 µM, first compound 0.00999 µM",41.1%
same,"viability, T/C",[25],32.7%
same,"viability, T/C","second compound 3.16 µM, first compound 0.0999 µM",25.1%
same,"viability, T/C",[27],0.97%
same,"viability, T/C","second compound 10 µM, first compound 0.000999 µM",84.1%
same,"viability, T/C","second compound 10 µM, first compound 0.00316 µM",64.8%
same,"viability, T/C","second compound 10 µM, first compound 0.00999 µM",79.1%
same,"viability, T/C",[31],48.3%
same,"viability, T/C","second compound 10 µM, first compound 0.0999 µM",33.6%
same,"viability, T/C",[33],0.53%
O=C(NO)c1cnc(N2CCN(S(=O)(=O)c3ccc4ccccc4c3)CC2)nc1 + Cc1[nH]c2ccc(F)cc2c1-c1nc2c3cccnc3c3ncccc3c2[nH]1,IC50,second compound 0.0316 µM,187 nM
same,IC50,second compound 0.1 µM,248 nM
same,IC50,second compound 0.316 µM,209 nM
same,IC50,second compound 1 µM,123 nM
same,IC50,second compound 3.16 µM,< 31.6 nM
same,IC50,second compound 10 µM,127 nM
same,"viability, T/C",[1],120%
same,"viability, T/C",[2],80.4%
same,"viability, T/C",[3],25.1%
same,"viability, T/C",[4],0.4%
same,"viability, T/C",[5],0.21%
same,"viability, T/C",[6],0.21%
same,"viability, T/C",[7],99.4%
same,"viability, T/C",[8],97.2%
same,"viability, T/C",[9],37.5%
same,"viability, T/C",[10],0.48%
same,"viability, T/C",[11],0.3%
same,"viability, T/C",[12],0.23%
same,"viability, T/C",[13],94.3%
same,"viability, T/C",[14],90.2%
same,"viability, T/C",[15],27.6%
same,"viability, T/C",[16],0.67%
same,"viability, T/C",[17],0.25%
same,"viability, T/C",[18],0.34%
same,"viability, T/C",[19],62.3%
same,"viability, T/C",[20],52.7%
same,"viability, T/C",[21],28.8%
same,"viability, T/C",[22],1%
same,"viability, T/C",[23],0.31%
same,"viability, T/C",[24],0.56%
same,"viability, T/C",[25],39.8%
same,"viability, T/C",[26],29.3%
same,"viability, T/C",[27],19.3%
same,"viability, T/C",[28],0.37%
same,"viability, T/C",[29],0.44%
same,"viability, T/C",[30],0.51%
same,"viability, T/C",[31],67.4%
same,"viability, T/C",[32],54.9%
same,"viability, T/C",[33],27.5%
same,"viability, T/C",[34],1.72%
same,"viability, T/C",[35],0.78%
same,"viability, T/C",[36],0.43%
